Assay results as given in the NIST ThermoML archive (doi:10.1016/j.jct.2013.01.026).

Tests used:
[1] = refractive index (other wavelength) (dimensionless); conditions: 298.15 K, 101.3 kPa, Liquid, Standard Abbe refractometry
[2] = refractive index (other wavelength) (dimensionless); wn = mass fraction of the nth substance listed; conditions: 298.15 K, 101.3 kPa, Liquid, Standard Abbe refractometry

c1ccc2c(c1)CCCC2 [1,2,3,4-tetrahydronaphthalene]
[1]
Conditions	refractive index
Wavelength=670 nm	1.53479
Wavelength=925 nm	1.52642

c1ccc2c(c1)CCCC2 [1,2,3,4-tetrahydronaphthalene] + CCCCCCCCCCCC
refractive index, [2]
Conditions	w2 = 0	w2 = 0.1	w2 = 0.1999	w2 = 0.2999	w2 = 0.4001	w2 = 0.4999	w2 = 0.6002	w2 = 0.6999	w2 = 0.8	w2 = 0.9001
Wavelength=670 nm	1.53479	1.51956	1.505	1.49244	1.47987	1.46832	1.45728	1.44674	1.43694	1.42736
Wavelength=925 nm	1.52642	1.51181	1.49762	1.48558	1.47343	1.4622	1.45157	1.44149	1.43179	1.42273

CC(C)Cc1ccccc1 [(2-methylpropyl)benzene]
[1]
Conditions	refractive index
Wavelength=670 nm	1.48071
Wavelength=925 nm	1.47345

CC(C)Cc1ccccc1 [(2-methylpropyl)benzene] + CCCCCCCCCCCC
refractive index, [2]
Conditions	w2 = 0.0998	w2 = 0.2001	w2 = 0.3002	w2 = 0.4	w2 = 0.4999	w2 = 0.6	w2 = 0.7001	w2 = 0.8002	w2 = 0.9001
Wavelength=670 nm	1.47308	1.46588	1.45898	1.45233	1.44607	1.44006	1.43407	1.42875	1.42337
Wavelength=925 nm	1.46604	1.45912	1.45266	1.44638	1.44043	1.43444	1.42884	1.42387	1.4187

CC(C)Cc1ccccc1 [(2-methylpropyl)benzene] + c1ccc2c(c1)CCCC2
refractive index, [2]
Conditions	w2 = 0	w2 = 0.1003	w2 = 0.2	w2 = 0.2999	w2 = 0.3977	w2 = 0.4996	w2 = 0.6002	w2 = 0.699	w2 = 0.8001	w2 = 0.8997
Wavelength=670 nm	1.48071	1.48573	1.49084	1.49587	1.50109	1.50663	1.51197	1.51743	1.52313	1.52865
Wavelength=925 nm	1.47345	1.47803	1.48337	1.48805	1.49344	1.49865	1.50413	1.5092	1.51499	1.52005

CCCCCCCCCCCC [dodecane]
[1]
Conditions	refractive index
Wavelength=670 nm	1.41845
Wavelength=925 nm	1.41407

CCCCCCCCCCCC [dodecane] + CC(C)Cc1ccccc1
[2], w1 = 1
Conditions	refractive index
Wavelength=670 nm	1.41845
Wavelength=925 nm	1.41407
